Results taken from patent publication US20240156791A1, “METHODS OF TREATING SPINAL CORD INJURY OR DAMAGE” (Spinogenix, Inc., priority 2021, published 2024).

Test system: rat C2 hemisection (C2HS) model of spinal cord injury
Test: rat C2 hemisection (C2HS) model of spinal cord injury, recovery monitored by diaphragm EMG
Type: in vivo
Protocol: A representative compound of this disclosure, Compound 1, was used in treating spinal cord injury in rats. The rat C2 hemisection (C2HS) model of spinal cord injury was used in this experiment. The spinal cord injury was modeled in rats by hemi-section at the level of C2 followed by monitoring of lesion and recovery was conducted by one of the following methods: diaphragm EMG, transdiaphragmatic pressure, and ventilatory behaviors.
Seven rats were treated with Compound 1 (30 mg/kg) and 8 rats were treated with a vehicle (0.5% DMSO in phosphate buffered saline) for 14 days and their recovery was monitored. […] Also, the magnitude of recovery was an average 54% among recovered compound-treated rats as compared to vehicle-treated rats.
Similar experiment was carried out separately using 4 rats and it provided similar results as those described above.

[1] = separate similar experiment using 4 rats

## OCCOCCOCCOCCOc1ccc(-c2nc3ccccc3s2)cc1 [Compound 1]
30 mg/kg for 14 days
  recovery compared with brain derived neurotrophic factor approaches: greater than that seen for brain derived neurothrophic factor approaches
30 mg/kg for 14 days, seven rats, by day 14 post lesion
  rats recovered as judged by diaphragm EMG: 86%
30 mg/kg for 14 days, diaphragm EMG
  magnitude of recovery (average) among recovered compound-treated rats as compared to vehicle-treated rats: 54%
Rats treated with compound vs vehicle (0.5% DMSO in PBS)
  recovery from spinal cord injury as judged by diaphragm EMG (FIG. 1A): enhancement of recovery
[1]
  % recovery as compared to vehicle-treated rats: greater % recovery
  magnitude of recovery as compared to vehicle-treated rats: greater magnitude of recovery
